Results from ChEMBL document CHEMBL5042529, “One-Pot Enzymatic Synthesis and Biological Evaluation of Ganglioside GM3 Derivatives as Potential Cancer Immunotherapeutics” (J Med Chem, 2022).
Active and inactive are the calls of the source. No cut-off for these calls is given here.

Tests used:
[1] = Downregulation of HSPG2 gene expression in human A431 cells at 50 uM incubated for 24 hrs by RNA-seq analysis; format: functional; details: A-431
B16 [2] = test: Anticancer activity against mouse B16-Luc cells transfected in BALB/c mouse assessed as cellular debris in tumor tissue at 5 mg/kg, ip qd treated for 7 days by H and E staining based microscopy; format: functional, organism-based; details: time 7.0 day
B16 [3] = test: Anticancer activity against mouse B16-Luc cells transfected in C57BL/6 mouse assessed as cell atypia in tumor tissue at 5 mg/kg, ip qd treated for 7 days by H and E staining based microscopy; format: functional, organism-based; details: time 7.0 day
[4] = Apparent volume of distribution in C57BL/6 mouse at 10 mg/kg, iv measured upto 24 hrs; format: ADME, organism-based; details: in vivo
Mus musculus [5] = test: Effect on IL-2 expression in C57BL/6 mouse transfected with mouse B16-Luc cells assessed as serum […] level at 5 mg/kg, ip qd treated for 7 days by ELISA; format: functional, organism-based; details: time 7.0 day
[6] = Downregulation of XIAP gene expression in human A431 cells at 50 uM incubated for 24 hrs by qPCR analysis; format: functional; details: A-431
[7] = Toxicity in C57BL/6 mouse transfected with mouse B16-Luc cells assessed as behavioral abnormalities at 5 mg/kg, sc qd treated for 7 days; format: organism-based; details: in vivo, 168 h, time 7 day
[8] = Downregulation of LAMA5 gene expression in human A431 cells at 50 uM incubated for 24 hrs by qPCR analysis; format: functional; details: A-431
B16 [9] = test: Anticancer activity against mouse B16-Luc cells transfected in C57BL/6 mouse assessed as increase in tumor necrotic area at 5 mg/kg, ip qd treated for 7 days by H and E staining based microscopy relative to control; format: functional, organism-based; details: time 7.0 day
[10] = Reduction of VAVI expression in human A431 cells at 50 uM incubated for 24 hrs by Western blotting analysis; format: functional; details: A-431
[11] = Downregulation of VAVI gene expression in human A431 cells at 50 uM incubated for 24 hrs by qPCR analysis; format: functional; details: A-431
[12] = Downregulation of LAMA5 gene expression in human A431 cells at 50 uM incubated for 24 hrs by RNA-seq analysis; format: functional; details: A-431
B16 [13] = test: Anticancer activity against mouse B16-Luc cells transfected in C57BL/6 mouse assessed as cellular debris in tumor tissue at 5 mg/kg, ip qd treated for 7 days by H and E staining based microscopy; format: functional, organism-based; details: time 7.0 day
Mus musculus [14] = test: Effect on IL-2 expression in BALB/c mouse transfected with mouse B16-Luc cells assessed as serum IL-2 level at 5 mg/kg, ip qd treated for 7 days by ELISA; format: functional, organism-based; details: time 7.0 day
Mus musculus [15] = test: Increase in IL-12 expression in BALB/c mouse transfected with mouse B16-Luc cells assessed as […] at 5 mg/kg, ip qd treated for 7 days by ELISA; format: functional, organism-based; details: time 7.0 day
Mus musculus [16] = test: Increase in IL-12 expression in C57BL/6 mouse transfected with mouse B16-Luc cells assessed as […] at 5 mg/kg, ip qd treated for 7 days by ELISA; format: functional, organism-based; details: time 7.0 day
[17] = Downregulation of HSPG2 gene expression in human A431 cells at 50 uM incubated for 24 hrs by qPCR analysis; format: functional; details: A-431
B16 [18] = test: Anticancer activity against mouse B16-Luc cells transfected in BALB/c mouse assessed as increase in tumor necrotic area at 5 mg/kg, ip qd treated for 7 days by H and E staining based microscopy relative to control; format: functional, organism-based; details: time 7.0 day
B16 [19] = test: Anticancer activity against mouse B16-Luc cells transfected in C57BL/6 mouse assessed as inflammatory cell infiltration in tumor tissue at 5 mg/kg, ip qd treated for 7 days by H and E staining based microscopy; format: functional, organism-based; details: time 7.0 day
B16 [20] = test: Anticancer activity against mouse B16-Luc cells transfected in BALB/c mouse assessed as cell atypia in tumor tissue at 5 mg/kg, ip qd treated for 7 days by H and E staining based microscopy; format: functional, organism-based; details: time 7.0 day
[21] = Cytotoxicity against rat PC-12 cells measured after 24 hrs by MTT assay; format: toxicity, cell-based
[22] = Half life in C57BL/6 mouse 10 mg/kg, iv measured upto 24 hrs; format: ADME, organism-based; details: in vivo
Mus musculus [23] = test: Effect on IgG expression in BALB/c mouse transfected with mouse B16-Luc cells assessed as serum IgG level at 5 mg/kg, ip qd treated for 7 days by ELISA; format: functional, organism-based; details: time 7.0 day
Mus musculus [24] = test: Effect on IL-2 expression in C57BL/6 mouse transfected with mouse B16-Luc cells assessed as serum IL-2 level at 5 mg/kg, ip qd treated for 7 days by ELISA; format: functional, organism-based; details: time 7.0 day
A-431 [25] = test: Inhibition of cell invasion in human A-431 cells assessed as inhibition rate at 50 uM incubated for 24 hrs by crystal violet staining based transwell assay; format: functional
[26] = Cytotoxicity against human A-431 cells measured after 24 hrs by MTT assay; format: toxicity, cell-based
B16 [27] = test: Anticancer activity against mouse B16-Luc cells transfected in BALB/c mouse assessed as nuclear pyknosis in tumor tissue at 5 mg/kg, ip qd treated for 7 days by H and E staining based microscopy; format: functional, organism-based; details: time 7.0 day
[28] = Reduction of integrin beta1 expression in human A431 cells at 50 uM incubated for 24 hrs by Western blotting analysis; format: functional; details: A-431
B16 [29] = test: Anticancer activity against mouse B16-Luc cells transfected in C57BL/6 mouse assessed as tumor inhibition rate at 5 mg/kg, ip qd treated for 7 days; format: functional; details: 168 h, time 7 day
B16 [30] = test: Anticancer activity against mouse B16-Luc cells transfected in BALB/c mouse assessed as inflammatory cell infiltration in tumor tissue at 5 mg/kg, ip qd treated for 7 days by H and E staining based microscopy; format: functional, organism-based; details: time 7.0 day
B16 [31] = test: Anticancer activity against mouse B16-Luc cells transfected in BALB/c mouse assessed as tumor inhibition rate at 5 mg/kg, ip qd treated for 7 days; format: functional; details: 168 h, time 7 day
[32] = Downregulation of XIAP gene expression in human A431 cells at 50 uM incubated for 24 hrs by RNA-seq analysis; format: functional; details: A-431
B16 [33] = test: Anticancer activity against mouse B16-Luc cells transfected in C57BL/6 mouse assessed as nuclear pyknosis in tumor tissue at 5 mg/kg, ip qd treated for 7 days by H and E staining based microscopy; format: functional, organism-based; details: time 7.0 day
[34] = Downregulation of VAVI gene expression in human A431 cells at 50 uM incubated for 24 hrs by RNA-seq analysis; format: functional; details: A-431
[35] = Toxicity in BALB/c mouse transfected with mouse B16-Luc cells assessed as behavioral abnormalities at 5 mg/kg, sc qd treated for 7 days; format: organism-based; details: in vivo, 168 h, time 7 day
[36] = Cytotoxicity against human HeLa cells measured after 24 hrs by MTT assay; format: toxicity, cell-based
[37] = Clearance in C57BL/6 mouse at 10 mg/kg, iv measured upto 24 hrs; format: ADME, organism-based; details: in vivo
B16 [38] = test: Anticancer activity against mouse B16-Luc cells transfected in BALB/c mouse assessed as relative tumor weight at 5 mg/kg, ip qd treated for 7 days (reference value: 5.3 + /-1.4 g); format: functional; details: time 7 day
Mus musculus [39] = test: Effect on IL-2 expression in C57BL/6 mouse transfected with mouse B16-Luc cells assessed as serum IgG level at 5 mg/kg, ip qd treated for 7 days by ELISA; format: functional, organism-based; details: time 7.0 day
[40] = Cytotoxicity against CHO cells measured after 24 hrs by MTT assay; format: toxicity, cell-based, Cricetulus griseus; details: Chinese hamster
A-431 [41] = test: Antimigratory activity in human A-431 cells assessed as inhibition of scratch at 50 uM measured after 24 hrs by Wound healing assay; format: functional; design: scale not given: the % may be the effect or the level left
B16 [42] = test: Anticancer activity against mouse B16-Luc cells transfected in C57BL/6 mouse assessed as relative tumor weight at 5 mg/kg, ip qd treated for 7 days (reference value: 8 + /- 4.1 g); format: functional; details: time 7 day
[43] = Cytotoxicity against mouse Neuro2a cells measured after 24 hrs by MTT assay; format: toxicity, cell-based, N2a

In the case of CCCCCCCCCCCCC/C=C/[C@@H](O)[C@H](CO[C@@H]1O[C@H](CO)[C@@H](O[C@@H]2O[C@H](CO)[C@H](O)[C@H](O[C@]3(C(=O)O)C[C@H](O)[C@@H](NC(=O)c4cccc(I)c4)[C@H]([C@H](O)[C@H](O)CO)O3)[C@H]2O)[C@H](O)[C@H]1O)NC(=O)CCCCCCCCCCCCCCCCC, the inhibition at 50 µM [1] is reported as 55.2%, the Activity (B16 [2]) is reported as “Active” and the Activity (B16 [3]) is reported as “Active”. The Vd [4] was 2.4 mL/mg, the Activity (Mus musculus [5]) was “inactive” and the inhibition at 50 µM [6] was 46.2%. The Activity [7] was “Non-Toxic”, the inhibition at 50 µM [8] was 54.1% and the Activity (B16 [9]) was “Active”. The inhibition at 50 µM [10] was 14.5%, the inhibition at 50 µM [11] was 93.4% and the inhibition at 50 µM [12] was 50.8%. The Activity (B16 [13]) was “Active”, the Activity (Mus musculus [14]) was “inactive” and the Activity (Mus musculus [15]) was “inactive”. The Activity (Mus musculus [16]) was “inactive”, the inhibition at 50 µM [17] was 33.4% and the Activity (B16 [18]) was “Active”. For the same compound, the Activity (B16 [19]) was “Active”, the Activity (B16 [20]) was “Active” and the IC50 at 24 h [21] was > 200 µM. The half-life [22] was 56.8 h, the Activity (Mus musculus [23]) was “inactive” and the Activity (Mus musculus [24]) was “inactive”. The inhibition at 50 µM (A-431 [25]) was 36.6%, the IC50 at 24 h [26] was > 200 µM and the Activity (B16 [27]) was “Active”. For the same compound, the inhibition at 50 µM [28] was 14.7%, the inhibition in vivo at 5 mg/kg (B16 [29]) was 46.2% and the Activity (B16 [30]) was “Active”. The inhibition in vivo at 5 mg/kg (B16 [31]) was 29.2%, the inhibition at 50 µM [32] was 52.5% and the Activity (B16 [33]) was “Active”. The inhibition at 50 µM [34] was 100%, the Activity [35] was “Non-Toxic” and the IC50 at 24 h [36] was > 200 µM. For the same compound, the CL [37] was 0.483 µL/min/mg, the Activity (B16 [38]) was 5.3 g and the Activity (Mus musculus [39]) was “inactive”. The IC50 at 24 h [40] was > 200 µM, the Activity (A-431 [41]) was 46.7% and the Activity (B16 [42]) was 4.3 g. The IC50 at 24 h [43] was > 200 µM.

In the case of CCCCCCCCCCCCC/C=C/[C@@H](O)[C@H](CO[C@@H]1O[C@H](CO)[C@@H](O[C@@H]2O[C@H](CO)[C@H](O)[C@H](O[C@]3(C(=O)O)C[C@H](O)[C@@H](NC(=O)CC)[C@H]([C@H](O)[C@H](O)CO)O3)[C@H]2O)[C@H](O)[C@H]1O)NC(=O)CCCCCCCCCCCCCCCCC, the IC50 at 24 h [21] is reported as > 200 µM, the IC50 at 24 h [26] is reported as > 200 µM and the IC50 at 24 h [36] is reported as > 200 µM. For the same compound, the IC50 at 24 h [40] was > 200 µM and the IC50 at 24 h [43] was > 200 µM.

With CCCCCCCCCCCCC/C=C/[C@@H](O)[C@H](CO[C@@H]1O[C@H](CO)[C@@H](O[C@@H]2O[C@H](CO)[C@H](O)[C@H](O[C@]3(C(=O)O)C[C@H](O)[C@@H](NC(=O)c4cccc(Br)c4)[C@H]([C@H](O)[C@H](O)CO)O3)[C@H]2O)[C@H](O)[C@H]1O)NC(=O)CCCCCCCCCCCCCCCCC the IC50 at 24 h [21] was > 200 µM, the IC50 at 24 h [26] was > 200 µM and the IC50 at 24 h [36] was > 200 µM. For the same compound, the IC50 at 24 h [40] was > 200 µM and the IC50 at 24 h [43] was > 200 µM.

For CCCCCCCCCCCCC/C=C/[C@@H](O)[C@H](CO[C@@H]1O[C@H](CO)[C@@H](O[C@@H]2O[C@H](CO)[C@H](O)[C@H](O[C@]3(C(=O)O)C[C@H](O)[C@@H](NC(=O)c4ccncc4)[C@H]([C@H](O)[C@H](O)CO)O3)[C@H]2O)[C@H](O)[C@H]1O)NC(=O)CCCCCCCCCCCCCCCCC, the IC50 at 24 h [21] was > 200 µM, the inhibition at 50 µM (A-431 [25]) was 26.2% and the IC50 at 24 h [26] was > 200 µM. For the same compound, the IC50 at 24 h [36] was > 200 µM, the IC50 at 24 h [40] was > 200 µM and the Activity (A-431 [41]) was “Active”. The IC50 at 24 h [43] was > 200 µM.
